In patent publication US10785978B2, “Control and repellency of biting flies, house flies, ticks, ants, fleas, biting midges, cockroaches, spiders and stink bugs” (priority 2012, dated 2020):

How the values were obtained:
Format in all cases: in vivo
[1] = test system: German cockroaches; test: German cockroach repellency, choice of food stations in arena; conditions: 50% in acetone; at 4 hours
Method: The efficacy of compounds of this invention to control or repel German cockroaches was illustrated using the following protocol. One food pellet each was placed on a paper square (station) treated with one of the repellent materials. Materials were diluted to 50% in acetone and a straight acetone station was also used. Both stations were placed on the same side of the arena. Cockroaches were starved for 2 days and then released into the arena. They were given a choice to feed on either food pellet. A control arena with an acetone treated station and an untreated station was also used. The distribution of cockroaches within the arena was recorded at 30 minute intervals over 4 hours. Repellency at 4 hours was calculated by the number of cockroaches on the untreated station vs. the total number of cockroaches on the stations.

[2] = test system: Brown Dog Ticks; test: Second repellent assay against Brown Dog Ticks; conditions: 15% in isopropyl alcohol
Method: Also, a second repellent assay was used to evaluate six test samples against Brown Dog Ticks. Five replicates of five ticks were given the opportunity to quest onto a vertical strip of untreated filter paper and then allowed to move upward toward a second vertical strip of filter paper treated with one of the six candidate repellents or DEET®. In the control situation, the second strip was treated with isopropanol. They were then observed for directional or behavioral changes caused in response to contact with the repellent. Ticks were recorded as either repelled or not repelled. Compounds were diluted in isopropyl alcohol. The percentages of ticks repelled are shown below in Table 6.

[3] = test system: Brown Dog Ticks, Rhipicephalus sanguineus; conditions: in vivo
Excerpt: The following protocol was employed to test compounds of this invention for toxicity (mortality) against ticks. There were 5 replicates of 5 dog ticks for each treatment. […] Filter paper strips were laid on a sheet of aluminum foil and enough of each of the test sample was applied to thoroughly saturate the paper. The paper was then rolled and placed inside a glass shell vial as to line the sides of the vial. A small paper disc, also saturated with the test sample, was then placed at the bottom of the vial. Brown Dog Ticks, Rhipicephalus sanguineus, were then introduced into the vials which were covered with aluminum foil, the inside of which was painted with some of the test sample. The ticks remained in the vials, constantly exposed to the test samples, for the duration of the test. A small hole was poked through the foil for ventilation. Each control replicate was subjected to the same procedures outlined above, except that they were not treated. The controls were placed in the same area as the test replicates for the duration of the test. Mortality observations were made at 24 hours. Ticks were classified as alive (able to move normally), moribund (those classified as moribund will show some movement, but will not be able to crawl in a coordinated manner, or will be unable to right themselves if placed on their backs), or dead (no movement after physical stimuli). All dead ticks were confirmed by probing or agitation to make sure that they are unable to move; any that show movement visible to the naked eye were recorded as moribund. At 24 hours the tick mortality was 0% for the control, 100% for γ-dodecalactone, 100% for methyl apritone and 76% for methyl dihydrojasmonate.

[4] = test system: stable flies; test: Stable fly probing on treated warmed blood-filled membranes; conditions: for Probes at 7% test compound: 7% in isopropyl alcohol on membrane; for Probes at 7% test compound / Probes at 15% test compound: twenty minutes, percent of control probes taken as 100%; for Probes at 15% test compound: 15% in isopropyl alcohol on membrane; for repellency compared with DEET: at the same concentrations (7% and 15%)
Method: Five replicates of 100 mixed-sex stable flies each were placed in screened cages. The cages were placed in such a way that the stable flies had access to five warmed, blood-filled membrane walls. The membranes were treated with methyl dihydrojasmonate, gamma-dodecalactone, methyl apritone, or DEET® all at 7% and at 15% in isopropyl alcohol, or isopropyl alcohol as a control. There were five replicates tested with a positional rotation of the repellent at each replicate. Fresh batches of stable flies were used for each replicate. Thus each test sample was tested on each of the five wells, which allowed any positional bias to be eliminated. The number of stable flies probing each well was recorded at two minute intervals for twenty minutes. The total number of probes on each well were tallied at the end of the twenty minute observation period and the average percentage repellency was calculated for each compound. An analysis of variance was conducted to compare the average number of probes on each treatment membrane. The number of probes for the control was taken as the 100% baseline and the percentage for the test compounds is the percent for the number of probes for the test compound compared to the number of control probes.

[5] = test system: Brown Dog Ticks, Rhipicephalus sanguineus; test: Brown Dog tick repellency on vertical filter paper strips; conditions: for ticks repelled: concentration not given
Method: Control against Brown Dog ticks was determined in the following protocol. Strips of filter paper, 1″ by 3″, were placed on a sheet of aluminum foil treated with 1 ml each of the test samples and allowed to dry. The end of each treated strip was stapled to an untreated filter paper strip of the same dimensions. The stapled strips were suspended in a vertical position above a tray, with the treated half attached to a horizontal glass rod by a metal clip. The untreated half was lowered when the strip is vertically positioned. Brown Dog Ticks, Rhipicephalus sanguineus, mixed sexes, were purchased from a supplier. Five replicates of five ticks for each treatment regimen plus five additional replicates for the control were employed. Ticks shipped to the test site were given at least one day to acclimate to “shipping stress” before they are used for testing. Those tick specimens which appeared sluggish or moribund were not used. Suitable ticks were removed from their containers and allowed to quest on the free end of the test strip. Once present on the strip they were watched as they crawled up the strip until they contacted the treated paper. If the tick, once in contact with the treated zone, either turned around, stopped without proceeding further, or dropped off, the tick is classified as repelled. If it continued to crawl onto the treated strip, even after it stopped briefly, that tick was classified as not repelled. A maximum observation time of 1 minute per replicate was allowed for ticks to respond after reaching the treated area, but during the test, if more time was needed, the maximum observation time may have been adjusted at the discretion of the study coordinator. At the end of the observation time, the number of ticks repelled was recorded. Tick behavior was recorded when applicable, such as whether increased number of affected or repelled ticks occurred in successive replicates over time. After the completion of each treatment parameter, the testing chamber was ventilated for five minutes by turning on the exhaust fan and opening the door leading into the chamber. Ticks were used only once. Average number of ticks displaying each behavior category were calculated and compared to the control replicates.

[6] = test system: Pharaoh ants; test: Pharaoh ant behaviour at treated-untreated interface on poster board; conditions: 50% in acetone; 5 minutes after release
Method: Pharaoh ants were tested using the following protocol. The side of a 17″×23″ rectangular sheet of poster board was sprayed with the test sample or acetone, except for a region within a 6″ circle. The treated poster board was allowed to dry. Five worker ants were placed in the center of the 6″ untreated circle and allowed to wander outside the circle onto the treated surface. The behavior of the ants at the treated-untreated interface was recorded for 5 minutes after release. Test compounds were diluted in acetone.

| SMILES | % Repellency 4 hr [1] [%] | Mean % repelled [2] [%] | 24 hr mortality (%) [3] [%] | tick mortality at 24 hours [3] [%] | Probes at 7% test compound [4] [%] | Probes at 15% test compound [4] [%] | repellency compared with DEET [4] | Mean % repelled ([5]; 7.5% in isopropyl alcohol) [%] | Mean % repelled ([5]; Neat) [%] | ticks repelled [5] [%] | % crossed without stopping [6] [%] | % slowed, but crossed [6] [%] | % stopped at interface [6] [%] |
| --- | --- | --- | --- | --- | --- | --- | --- | --- | --- | --- | --- | --- | --- |
| CCC(C)=CCCC(C)=CCC1CCCC1=O (stereo not shown) [Methyl apritone, methyl apritone] | 100 | 100 | 100 | 100 | 28.8 | 7.4 | repelled better than DEET® | 100 | 100 | 100 | 66 | 2 | 66 |
| CCCCCC1C(=O)CCC1CC(=O)OC (stereo not shown) [Methyl dihydrojasmonate, methyl dihydrojasmonate] | 72.2 | 100 | 76 | 76 | 4.5 | 3.2 | repelled better than DEET® | – | 100 | 100 | 50 | 20 | 32 |
